From ChEMBL document CHEMBL6115057, “Discovery and Optimization of a Covalent AKR1C3 Inhibitor” (J Med Chem, 2025)
Changes are numbered by the printed parent chain. Active and inactive are the calls of the source. No cut-off for these calls is given here.

Key:
[1] = target: T1, Aldo-keto reductase family 1 member C2 (Homo sapiens) (UniProt P52895); assay: Binding affinity to AKR1C2 in human COLO 205 cells assessed as interaction at Y55 at 100 uM measured after 4 hrs; type: cell-based
T1 sequence (whole entry): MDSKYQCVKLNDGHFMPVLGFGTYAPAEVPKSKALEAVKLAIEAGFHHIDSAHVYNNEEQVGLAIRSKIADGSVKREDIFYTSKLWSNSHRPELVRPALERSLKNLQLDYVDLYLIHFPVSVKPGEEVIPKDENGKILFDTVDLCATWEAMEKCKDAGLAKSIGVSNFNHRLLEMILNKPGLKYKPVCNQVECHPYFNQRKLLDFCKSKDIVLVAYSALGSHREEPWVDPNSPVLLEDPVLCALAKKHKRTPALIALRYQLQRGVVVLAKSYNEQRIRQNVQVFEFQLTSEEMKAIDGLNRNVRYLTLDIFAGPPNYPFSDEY

[2] = target: T2, Aldo-keto reductase family 1 member C1 (Homo sapiens) (UniProt Q04828); assay: Binding affinity to AKR1C1 in human COLO 205 cells assessed as interaction at Y55 at 100 uM measured after 4 hrs; type: cell-based
T2 sequence (whole entry): T1 sequence (whole entry) with V38T, H47R, V54L, S87C, M151V, H170R, L172Q

[3] = target: T3, Aldo-keto reductase family 1 member C2 (Homo sapiens, UniProt P52895); assay: Inhibition of AKR1C2 (unknown origin) in human HEK293T cells assessed as turnover of coumberone to coumberol by live cell coumberone reduction assay; type: cell-based
T3 sequence (P52895 whole entry): T1 sequence (whole entry)

Homo sapiens [4] = organism: Homo sapiens; assay: Selectivity ratio, ratio of IC50 for AKR1C4 (unknown origin) to AKR1C3 (unknown origin)
[5] = target: T4, Aldo-keto reductase family 1 member C3 (Homo sapiens) (UniProt P42330); assay: Inhibition of TMT-SuTex labelling of AKR1C3 in human live COLO 205 cells assessed as blockade of probe labelling at 10 uM measured after 2 hrs relative to control; type: cell-based
T4 sequence (whole entry): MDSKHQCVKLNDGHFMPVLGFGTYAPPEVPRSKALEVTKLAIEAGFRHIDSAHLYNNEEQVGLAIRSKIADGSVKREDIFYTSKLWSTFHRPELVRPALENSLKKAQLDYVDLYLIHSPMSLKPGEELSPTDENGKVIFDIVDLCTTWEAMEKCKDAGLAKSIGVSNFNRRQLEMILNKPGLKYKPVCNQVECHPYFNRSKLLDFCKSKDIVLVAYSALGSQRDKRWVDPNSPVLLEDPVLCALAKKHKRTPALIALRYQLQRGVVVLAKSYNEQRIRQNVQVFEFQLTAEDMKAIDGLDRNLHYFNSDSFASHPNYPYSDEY

[6] = target: T5, Aldo-keto reductase family 1 member C1 (Homo sapiens, UniProt Q04828); assay: Inhibition of AKR1C1 (unknown origin) in human HEK293T cells assessed as turnover of coumberone to coumberol by live cell coumberone reduction assay; type: cell-based
T5 sequence (Q04828 whole entry): T1 sequence (whole entry) with V38T, H47R, V54L, S87C, M151V, H170R, L172Q

[7] = target: T4, Aldo-keto reductase family 1 member C3 (Homo sapiens); assay: Inhibition of RJG-2121 probe labelling of AKR1C3 in human COLO 205 cells in presence of CuAAC Gel-Based (competitive ABPP) Chemical Proteomics Assay; type: cell-based
[8] = target: T4, Aldo-keto reductase family 1 member C3 (Homo sapiens); assay: Binding affinity to AKR1C3 in human live COLO 205 cells assessed as interaction at Y24 at 10 uM measured after 2 hrs; type: cell-based
Homo sapiens [9] = organism: Homo sapiens; assay: Selectivity ratio, ratio of IC50 for AKR1C2 (unknown origin) to AKR1C3 (unknown origin)
[10] = target: T6, Aldo-keto reductase family 1 member C3 (Homo sapiens, UniProt P42330); assay: Inhibition of AKR1C3 in human COLO 205 cells by Cell based AKR activity assay
T6 sequence (P42330 whole entry): T4 sequence (whole entry)

[11] = target: T4, Aldo-keto reductase family 1 member C3 (Homo sapiens); assay: Binding affinity to AKR1C3 in human live COLO 205 cells assessed as interaction at Y272 by measuring competition ratio at 10 uM measured after 2 hrs relative to control; type: cell-based
[12] = target: T2, Aldo-keto reductase family 1 member C1 (Homo sapiens); assay: Inhibition of RJG-2121 probe labelling of AKR1C1 (unknown origin) expressed in human HEK293T cells in presence of CuAAC measured by Gel-Based (competitive ABPP) Chemical Proteomics Assay; type: cell-based; details: time 5-120 min
[13] = target: T2, Aldo-keto reductase family 1 member C1 (Homo sapiens); assay: Binding affinity to AKR1C1 in human live COLO 205 cells assessed as interaction at Y24/T126 by measuring competition ratio at 10 uM measured after 2 hrs relative to control; type: cell-based
Homo sapiens [14] = organism: Homo sapiens; assay: Selectivity ratio, ratio of IC50 for AKR1C1 (unknown origin) to AKR1C3 (unknown origin)
[15] = target: Aldo-keto reductase family 1 member B10 (Homo sapiens) (UniProt O60218); assay: Binding affinity to AKR1B10 in human live COLO 205 cells assessed as interaction at Y49 by measuring competition ratio at 10 uM measured after 2 hrs relative to control; type: cell-based
Chain of Aldo-keto reductase family 1 member B10 (Homo sapiens) (O60218 whole entry, looked up): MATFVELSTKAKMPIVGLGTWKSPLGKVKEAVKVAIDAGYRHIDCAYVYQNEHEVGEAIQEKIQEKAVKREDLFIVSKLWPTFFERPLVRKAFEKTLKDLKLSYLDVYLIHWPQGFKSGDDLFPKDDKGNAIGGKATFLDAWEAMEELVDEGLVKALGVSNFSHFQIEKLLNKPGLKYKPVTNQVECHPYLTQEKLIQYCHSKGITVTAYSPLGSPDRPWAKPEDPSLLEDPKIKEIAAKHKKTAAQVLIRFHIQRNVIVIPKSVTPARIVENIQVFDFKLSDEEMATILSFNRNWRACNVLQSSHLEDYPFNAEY

[16] = target: T7, Aldo-keto reductase family 1 member C4 (Homo sapiens, UniProt P17516); assay: Inhibition of AKR1C4 (unknown origin) in human HEK293T cells assessed as turnover of coumberone to coumberol by live cell coumberone reduction assay; type: cell-based
T7 sequence (P17516 whole entry): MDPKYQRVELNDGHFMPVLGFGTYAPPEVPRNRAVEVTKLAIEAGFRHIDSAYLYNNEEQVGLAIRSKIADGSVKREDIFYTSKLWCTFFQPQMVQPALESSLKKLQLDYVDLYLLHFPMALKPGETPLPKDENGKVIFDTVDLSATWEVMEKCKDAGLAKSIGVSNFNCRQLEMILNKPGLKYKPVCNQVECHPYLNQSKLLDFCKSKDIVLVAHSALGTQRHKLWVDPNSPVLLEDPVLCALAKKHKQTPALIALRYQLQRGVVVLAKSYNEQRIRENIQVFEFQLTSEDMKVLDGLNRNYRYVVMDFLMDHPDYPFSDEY

[17] = target: T4, Aldo-keto reductase family 1 member C3 (Homo sapiens); assay: Inhibition of TMT-SuTex labelling of AKR1C3 in human live COLO 205 cells assessed as competition ratio at 10 uM measured after 2 hrs relative to control; type: cell-based
[18] = target: T4, Aldo-keto reductase family 1 member C3 (Homo sapiens); assay: Binding affinity to AKR1C3 in human COLO 205 cells assessed as interaction at Y24/Y55 at 100 uM measured after 4 hrs; type: cell-based
HEK293T = assay: Inhibition of RJG-2121 probe labelling of AKR1C4 (unknown origin) expressed in human HEK293T cells in presence of CuAAC measured after 5 to 120 mins by Gel-Based (competitive ABPP) Chemical Proteomics Assay; type: cell-based; details: time 5-120 min
[19] = target: T1, Aldo-keto reductase family 1 member C2 (Homo sapiens); assay: Inhibition of RJG-2121 probe labelling of AKR1C2 (unknown origin) expressed in human HEK293T cells in presence of CuAAC measured after 5 to 120 mins by Gel-Based (competitive ABPP) Chemical Proteomics Assay; type: cell-based; details: time 5-120 min
[20] = target: T4, Aldo-keto reductase family 1 member C3 (Homo sapiens); assay: Inhibition of RJG-2121 probe labelling of AKR1C3 (unknown origin) expressed in human HEK293T cells in presence of CuAAC measured after 5 to 120 mins by Gel-Based (competitive ABPP) Chemical Proteomics Assay; type: cell-based; details: time 5-120 min
[21] = target: T2, Aldo-keto reductase family 1 member C1 (Homo sapiens); assay: Inhibition of RJG-2121 probe labelling of AKR1C1 (unknown origin) expressed in human HEK293T cells in presence of CuAAC measured after 5 to 120 mins by Gel-Based (competitive ABPP) Chemical Proteomics Assay; type: cell-based; details: time 5-120 min

| SMILES | IC50 [10] [nM] | also measured |
| --- | --- | --- |
| C#CCN(C)C(=O)c1ccc(S(=O)(=O)n2cncn2)cc1 | – | Activity [1]: Active; Activity [2]: Active |
| COc1ccccc1N1CCN(C(=O)c2ccc(S(=O)(=O)n3cnc(C4CCCCC4)n3)cc2)CC1 | 27 | IC50 [3]: 23000 nM; Ratio IC50 (Homo sapiens [4]): 461; inhibition [5]: > 75%; IC50 [6]: 31000 nM; inhibition [7]: Dose-dependent-effect; Activity [8]: Active; Ratio IC50 (Homo sapiens [9]): 1770; Ratio [11]: 1; inhibition [12]: Time-dependent-effect; Ratio [13]: 1; Ratio IC50 (Homo sapiens [14]): 2380; Ratio [15]: 1; IC50 [16]: 6000 nM; Ratio [17]: 0.25 |
| COc1ccc(N2CCN(C(=O)c3ccc(S(=O)(=O)n4cncn4)cc3)CC2)cc1 | 950 | – |
| COc1ccccc1N1CCN(C(=O)c2ccc(S(=O)(=O)n3cnc(-c4ccccc4F)n3)cc2)CC1 | 4700 | – |
| COc1ccccc1N1CCN(C(=O)c2ccc(S(=O)(=O)n3cnc(-c4ccncc4)n3)cc2)CC1 | 4200 | – |
| O=C(c1ccc(S(=O)(=O)n2cncn2)cc1)N1CCN(c2ccc(I)cc2)CC1 | 330 | – |
| COc1cccc(N2CCN(C(=O)c3ccc(S(=O)(=O)n4cncn4)cc3)CC2)c1 | 540 | – |
| COc1ccccc1N1CCN(C(=O)c2ccc(S(=O)(=O)n3cnc(-c4ccc(-c5ccccc5)cc4)n3)cc2)CC1 | > 10000 | – |
| COc1ccccc1N1CCN(C(=O)c2ccc(S(=O)(=O)n3cnc(-c4cccc(F)c4)n3)cc2)CC1 | 620 | – |
| COc1ccccc1N1CCN(C(=O)c2ccc(S(=O)(=O)n3cnc(C4CC4)n3)cc2)CC1 | 87 | – |
| C#CCN(C)C(=O)c1cccc(S(=O)(=O)n2cnc(C3CC3)n2)c1 | – | Activity [1]: Active; Activity [2]: Active |
| COc1ccccc1N1CCN(C(=O)c2ccc(S(=O)(=O)n3cnc(-c4ccc(Br)cc4)n3)cc2)CC1 | 980 | – |
| COc1ccccc1N1CCN(C(=O)c2cccc(S(=O)(=O)n3cnc(C4CC4)n3)c2)CC1 | 9200 | – |
| COc1ccccc1N1CCN(C(=O)c2ccc(S(=O)(=O)n3cnc(-c4ccco4)n3)cc2)CC1 | 5000 | – |
| COc1ccccc1N1CCN(C(=O)c2ccc(S(=O)(=O)n3cnc(-c4ccc(F)cc4)n3)cc2)CC1 | 510 | – |
| O=C(c1ccc(S(=O)(=O)n2cncn2)cc1)N1CCN(c2ccccn2)CC1 | 2600 | – |
| COc1ccccc1NC1CCN(C(=O)c2ccc(S(=O)(=O)n3cncn3)cc2)CC1 | 4700 | – |
| C#CCNC(=O)c1cccc(S(=O)(=O)n2cncn2)c1 | – | Activity [18]: Active |

| SMILES | IC50 [10] [nM] | also measured |
| --- | --- | --- |
| C#CCNC(=O)c1ccc(S(=O)(=O)n2cnc(C3CCCCC3)n2)cc1 | – | Activity [18]: Active |
| O=C(Nc1ccc(-c2ccccn2)cc1)c1ccc(S(=O)(=O)n2cncn2)cc1 | > 10000 | – |
| COc1ccccc1N1CCN(C(=O)c2ccc(S(=O)(=O)n3cnc(C4CCCC4)n3)cc2)CC1 | 41 | – |
| O=C(Nc1ccc(-c2ccccc2OC(F)(F)F)cc1)c1ccc(S(=O)(=O)n2cncn2)cc1 | > 10000 | – |
| C#CCN(C)C(=O)c1ccc(S(=O)(=O)n2cnc(C3CC3)n2)cc1 | – | Activity [18]: Active |
| COc1ccccc1N1CCN(C(=O)c2ccc(S(=O)(=O)n3cnc(-c4ccc(C(F)(F)F)cc4)n3)cc2)CC1 | 930 | – |
| COc1ccccc1N1CCN(C(=O)c2cccc(S(=O)(=O)n3cncn3)c2)CC1 | > 10000 | inhibition (HEK293T): inactive; Activity [7]: inactive; inhibition [19]: inactive; inhibition [20]: inactive; inhibition [21]: inactive |
| COc1ccccc1N1CCN(C(=O)c2ccc(S(=O)(=O)n3cnc(-c4ccc(OC(F)(F)F)cc4)n3)cc2)CC1 | 1100 | – |
| COc1ccccc1N1CCN(C(=O)c2ccc(S(=O)(=O)n3cncn3)cc2)CC1 | 2400 | – |
| C#CCNC(=O)c1ccc(S(=O)(=O)n2cnc(C3CC3)n2)cc1 | – | Activity [18]: Active |
| COc1ccc(-c2ncn(S(=O)(=O)c3ccc(C(=O)N4CCN(c5ccccc5OC)CC4)cc3)n2)cc1 | 500 | – |
| NS(=O)(=O)c1ccc(-n2nc(CCCNC(=O)Nc3ccc(C(F)(F)F)cc3)cc2-c2ccccc2)cc1 | > 10000 | – |
| COc1ccccc1N1CCN(C(=O)c2ccc(S(=O)(=O)n3cnc(-c4cccnc4)n3)cc2)CC1 | 7100 | – |
| COc1ccccc1N1CCN(C(=O)c2cccc(S(=O)(=O)n3cnc(-c4cccnc4)n3)c2)CC1 | > 10000 | – |
| COc1ccccc1N1CCN(C(=O)c2cccc(S(=O)(=O)n3cnc(C4CCCCC4)n3)c2)CC1 | > 10000 | – |
| COc1ccccc1N1CCN(C(=O)c2ccc(S(=O)(=O)n3cnc(-c4ccccc4)n3)cc2)CC1 | 2700 | – |
| COc1ccccc1-c1ccc(NC(=O)c2ccc(S(=O)(=O)n3cncn3)cc2)cc1 | 8700 | – |
| COc1ccccc1N1CCN(C(=O)c2ccc(S(=O)(=O)n3cnc(C4CCC4)n3)cc2)CC1 | 62 | – |
